Laboratory results as given in patent US20250059185A1 (Hoffmann-La Roche Inc., priority 2021, published 2025).
Where a name gives a salt, the structure may show the parent alone.

Molecular target: MAGL (Homo sapiens (Human), UniProt Q99685)
Experiment: 2-AG assay (MAGL inhibitory activity, hydrolysis of 2-arachidonoylglycerol followed by mass spectrometry)
Type: biochemical
Conditions: 50 pM MAGL protein, 15 min pre-incubation, 30 min incubation at RT
Summary of the method: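 Human MAGL (50 pM final) preincubated 15 min at RT with compound (3-fold dilutions, 12.5 μM to 0.8 pM final) in 50 mM TRIS, 1 mM EDTA, 0.01% Tween-20, 2.5% DMSO. Reaction with […] 2-AG ran 30 min at RT, then was quenched with acetonitrile containing d8-arachidonic acid. Arachidonic acid measured by SPE–triple-quad MS (negative ESI), activity from the arachidonic/d8-arachidonic acid intensity ratio.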

MAGL, sequence (Q99685 whole entry, species assumed): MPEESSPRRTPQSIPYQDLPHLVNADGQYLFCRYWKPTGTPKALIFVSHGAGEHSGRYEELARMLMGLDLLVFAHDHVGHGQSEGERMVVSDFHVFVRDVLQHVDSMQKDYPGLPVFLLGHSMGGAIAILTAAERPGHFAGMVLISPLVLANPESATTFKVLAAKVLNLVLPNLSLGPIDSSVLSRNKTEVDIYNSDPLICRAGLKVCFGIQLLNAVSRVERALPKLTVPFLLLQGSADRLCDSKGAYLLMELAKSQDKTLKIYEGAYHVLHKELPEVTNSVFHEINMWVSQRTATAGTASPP

IC50 | SMILES
1420 nM | C[C@@H]1c2nn(C)c(-c3cc(Cl)cc(C4(C(N)=O)CC4)c3)c2CCN1C(=O)c1cc(F)cc(N2CC3(C2)CS(=O)(=O)C3)c1Cl [Example 76, 1-[3-chloro-5-[(7R)-6-[2-chloro-3-(2,2-dioxo-2λ^6-thia-6-azaspiro[3.3]heptan-6-yl)-5-fluoro-benzoyl]-2,7-dimethyl-5,7-dihydro-4H-pyrazolo[3,4-c]pyridin-3-yl]phenyl]cyclopropanecarboxamide]
5 nM | C[C@H]1c2nn(C)c(-c3cc(F)cc(F)c3)c2CCN1C(=O)c1cc(F)cc(OCC2CNC(=O)O2)c1Cl (single isomer, unassigned) [Example 50, 5-[[2-Chloro-3-[3-(3,5-difluorophenyl)-2,7-dimethyl-5,7-dihydro-4H-pyrazolo[3,4-c]pyridine-6-carbonyl]-5-fluoro-phenoxy]methyl]oxazolidin-2-one]
59 nM | COc1cccc(C(=O)N2CCc3c(nn(C)c3-c3cc(Cl)cc(C4(S(C)(=O)=O)CC4)c3)[C@@H]2C)c1Cl [Example 5, (2-Chloro-3-methoxy-phenyl)-[(7S)-3-[3-chloro-5-(1-methylsulfonylcyclopropyl)phenyl]-2,7-dimethyl-5,7-dihydro-4H-pyrazolo[3,4-c]pyridin-6-yl]methanone]
258 nM | C[C@@H]1c2nn(C)c(-c3cc(F)cc(F)c3)c2CCN1C(=O)c1ccc(CCC2CNC(=O)C2)cc1Cl (single isomer, unassigned) [Example 46, 4-[2-[3-Chloro-4-[3-(3,5-difluorophenyl)-2,7-dimethyl-5,7-dihydro-4H-pyrazolo[3,4-c]pyridine-6-carbonyl]phenyl]ethyl]pyrrolidin-2-one]
84 nM | CC1c2nn(C)c(-c3cc(F)cc(F)c3)c2CCN1C(=O)c1cc(-c2cccc(C#N)c2)ccc1F (centres unmarked) [Example 26, 3-[3-[3-(3,5-Difluorophenyl)-2,7-dimethyl-5,7-dihydro-4H-pyrazolo[3,4-c]pyridine-6-carbonyl]-4-fluoro-phenyl]benzonitrile]
3240 nM | C[C@@H]1c2nn(C)c(-c3cncc(C(F)(F)F)n3)c2CCN1C(=O)c1cc(F)cc(N2CC3(C2)CS(=O)(=O)C3)c1Cl [Example 66, [2-chloro-3-(2,2-dioxo-2λ^6-thia-6-azaspiro[3.3]heptan-6-yl)-5-fluoro-phenyl]-[(7R)-2,7-dimethyl-3-[6-(trifluoromethyl)pyrazin-2-yl]-5,7-dihydro-4H-pyrazolo[3,4-c]pyridin-6-yl]methanone]
1.01 nM | C[C@@H]1c2nn(C)c(-c3cc(F)cc(F)c3)c2CCN1C(=O)c1cc(F)cc(CCc2c[nH]nn2)c1Cl [Example 105, [2-chloro-5-fluoro-3-[2-(JH-triazol-4-yl)ethyl]phenyl]-[(7R)-3-(3,5-difluorophenyl)-2,7-dimethyl-5,7-dihydro-4H-pyrazolo[3,4-c]pyridin-6-yl]methanone]
16.9 nM | COc1cccc(C(=O)N2CCc3c(nn(C)c3-c3cc(Cl)cc(CC(C)(C)O)c3)[C@@H]2C)c1Cl [Example 95, [(7S)-3-[3-chloro-5-(2-hydroxy-2-methyl-propyl)phenyl]-2,7-dimethyl-5,7-dihydro-4H-pyrazolo[3,4-c]pyridin-6-yl]-(2-chloro-3-methoxy-phenyl)methanone]
188 nM | COc1cccc(C(=O)N2CCc3c(nn(C)c3-c3cc(F)cc(CC(N)=O)c3)[C@@H]2C)c1Cl [Example 17, 2-[3-[(7S)-6-(2-Chloro-3-methoxy-benzoyl)-2,7-dimethyl-5,7-dihydro-4H-pyrazolo[3,4-c]pyridin-3-yl]-5-fluoro-phenyl]acetamide]
390 nM | COc1cccc(C(=O)N2CCc3c(nn(C)c3-c3nnc(C(F)(F)F)o3)[C@@H]2C)c1Cl [Example 12, (2-Chloro-3-methoxy-phenyl)-[(7S)-2,7-dimethyl-3-[5-(trifluoromethyl)-1,3,4-oxadiazol-2-yl]-5,7-dihydro-4H-pyrazolo[3,4-c]pyridin-6-yl]methanone]
1680 nM | C[C@@H]1c2nn(C)c(-c3cc(F)cc(F)c3)c2CCN1C(=O)c1ccc(CCC2CNC(=O)C2)cc1Cl (stereo partly drawn) [Example 48, 4-[2-[3-Chloro-4-[(7R)-3-(3,5-difluorophenyl)-2,7-dimethyl-5,7-dihydro-4H-pyrazolo[3,4-c]pyridine-6-carbonyl]phenyl]ethyl]pyrrolidin-2-one]
12.4 nM | CC1c2nn(C)c(-c3cc(F)cc(F)c3)c2CCN1C(=O)c1cc(F)cc(CNC2CNC(=O)C2)c1Cl (centres unmarked) [Example 106, 4-[[2-chloro-3-[3-(3,5-difluorophenyl)-2,7-dimethyl-5,7-dihydro-4H-pyrazolo[3,4-c]pyridine-6-carbonyl]-5-fluoro-phenyl]methylamino]pyrrolidin-2-one;hydrochloride]
76 nM | CC1c2nn(C)c(-c3cc(F)cc(F)c3)c2CCN1C(=O)c1cc(F)cc(N2CC(S(C)(=O)=O)C2)c1Cl (centres unmarked) [Example 22, [2-Chloro-5-fluoro-3-(3-methylsulfonylazetidin-1-yl)phenyl]-[3-(3,5-difluorophenyl)-2,7-dimethyl-5,7-dihydro-4H-pyrazolo[3,4-c]pyridin-6-yl]methanone]
1240 nM | C[C@H]1c2nn(C)c(-c3cc(Cl)cc(C4(C(N)=O)CC4)c3)c2CCN1C(=O)c1cc(F)cc(N2CC3(C2)CS(=O)(=O)C3)c1Cl [Example 75, 1-[3-chloro-5-[(7S)-6-[2-chloro-3-(2,2-dioxo-2λ^6-thia-6-azaspiro[3.3]heptan-6-yl)-5-fluoro-benzoyl]-2,7-dimethyl-5,7-dihydro-4H-pyrazolo[3,4-c]pyridin-3-yl]phenyl]cyclopropanecarboxamide]
622 nM | COc1cccc(C(=O)N2CCc3c(nn(C)c3-c3cccc(O)n3)[C@@H]2C)c1Cl [Example 13, (2-Chloro-3-methoxy-phenyl)-[(7S)-3-(6-hydroxy-2-pyridyl)-2,7-dimethyl-5,7-dihydro-4H-pyrazolo[3,4-c]pyridin-6-yl]methanone]
8.44 nM | CC1c2nn(C)c(-c3cc(F)cc(F)c3)c2CCN1C(=O)c1cc(F)cc(C2=CC(Cl)C(=O)N=C2)c1Cl (centres unmarked) [Example 97, 3-chloro-5-[2-chloro-3-[3-(3,5-difluorophenyl)-2,7-dimethyl-5,7-dihydro-4H-pyrazolo[3,4-c]pyridine-6-carbonyl]-5-fluoro-phenyl]-3H-pyridin-2-one]
311 nM | COc1cccc(C(=O)N2CCc3c(nn(C)c3-c3cnc(C(F)(F)F)nc3)[C@@H]2C)c1Cl [Example 9, (2-Chloro-3-methoxy-phenyl)-[(7S)-2,7-dimethyl-3-[2-(trifluoromethyl)pyrimidin-5-yl]-5,7-dihydro-4H-pyrazolo[3,4-c]pyridin-6-yl]methanone]
240 nM | COc1cccc(C(=O)N2CCc3c(nn(C)c3-c3cc(CNS(C)(=O)=O)cc(Cl)n3)C2C)c1Cl (centres unmarked) [Example 80, N-[[2-chloro-6-[6-(2-chloro-3-methoxy-benzoyl)-2,7-dimethyl-5,7-dihydro-4H-pyrazolo[3,4-c]pyridin-3-yl]-4-pyridyl]methyl]methanesulfonamide]
1260 nM | C[C@@H]1c2nn(C)c(-c3cncc(C(F)(F)F)n3)c2CCN1C(=O)c1ncn(-c2ccc[nH]c2=O)n1 [Example 96, 3-[3-[(7R)-2,7-dimethyl-3-[6-(trifluoromethyl)pyrazin-2-yl]-5,7-dihydro-4H-pyrazolo[3,4-c]pyridine-6-carbonyl]-1,2,4-triazol-1-yl]-1H-pyridin-2-one]
41 nM | CC1c2nn(C)c(-c3cc(F)cc(F)c3)c2CCN1C(=O)c1cc(F)cc(N2CC3(C2)CS(=O)(=O)C3)c1Cl (centres unmarked) [Example 19, [2-Chloro-3-(2,2-dioxo-2λ^6-thia-6-azaspiro[3.3]heptan-6-yl)-5-fluoro-phenyl]-[3-(3,5-difluorophenyl)-2,7-dimethyl-5,7-dihydro-4H-pyrazolo[3,4-c]pyridine-6-yl]methanone]
77 nM | CC1c2nn(C)c(-c3cc(Cl)cc(S(N)(=O)=O)c3)c2CCN1C(=O)c1cc(F)cc(-c2nc[nH]n2)c1Cl (centres unmarked) [Example 61, 3-Chloro-5-[6-[2-chloro-5-fluoro-3-(1H-1,2,4-triazol-3-yl)benzoyl]-2,7-dimethyl-5,7-dihydro-4H-pyrazolo[3,4-c]pyridin-3-yl]benzenesulfonamide]
99 nM | C[C@H]1c2nn(C)c(-c3cc(F)cc(F)c3)c2CCN1C(=O)c1ccc(CCC2CNC(=O)C2)cc1Cl (stereo partly drawn) [Example 45, 4-[2-[3-Chloro-4-[(7S)-3-(3,5-difluorophenyl)-2,7-dimethyl-5,7-dihydro-4H-pyrazolo[3,4-c]pyridine-6-carbonyl]phenyl]ethyl]pyrrolidin-2-one]
42 nM | CC1c2nn(C)c(-c3cc(Cl)cc(C4(C(N)=O)CC4)c3)c2CCN1C(=O)c1cc(F)cc(OCC2CNC(=O)C2)c1Cl (centres unmarked) [Example 70, 1-[3-chloro-5-[6-[2-chloro-5-fluoro-3-[(5-oxopyrrolidin-3-yl)methoxy]benzoyl]-2,7-dimethyl-5,7-dihydro-4H-pyrazolo[3,4-c]pyridin-3-yl]phenyl]cyclopropanecarboxamide]
1650 nM | COc1cccc(C(=O)N2CCc3c(nn(C)c3-c3cc(Cl)cc(CNS(C)(=O)=O)c3)[C@H]2C)c1Cl [Example 2, N-[[3-Chloro-5-[(7R)-6-(2-chloro-3-methoxy-benzoyl)-2,7-dimethyl-5,7-dihydro-4H-pyrazolo[3,4-c]pyridin-3-yl]phenyl]methyl]methanesulfonamide]
6.18 nM | CC1c2nn(C)c(-c3cc(Cl)cc(C4(NS(C)(=O)=O)CC4)c3)c2CCN1C(=O)c1cc(F)cc(-c2c[nH]c(C#N)c2)c1Cl (centres unmarked) [Example 84, N-[1-[3-chloro-5-[6-[2-chloro-3-(5-cyano-1H-pyrrol-3-yl)-5-fluoro-benzoyl]-2,7-dimethyl-5,7-dihydro-4H-pyrazolo[3,4-c]pyridin-3-yl]phenyl]cyclopropyl]methanesulfonamide]
149 nM | C[C@H]1c2nn(C)c(-c3cc(F)cc(F)c3)c2CCN1C(=O)c1ncn(-c2cc(F)cnc2O)n1 [Example 34, [(7S)-3-(3,5-Difluorophenyl)-2,7-dimethyl-5,7-dihydro-4H-pyrazolo[3,4-c]pyridin-6-yl]-[1-(5-fluoro-2-hydroxy-3-pyridyl)-1,2,4-triazol-3-yl]methanone]
